Measurements from PubChem BioAssay (NCI).
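Five concentrations, 48 hours, 96-well plates. Abbreviation: GI50, concentration required for 50% inhibition of growth. TGI denotes the concentration required for complete inhibition of growth.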

system: XF 498 CNS; assay: NCI-60 cell line screen, 48 h

| Compound | GI50 [µM] | TGI [µM] |
| --- | --- | --- |
| CC(=O)OCC1OC([S-])C(OC(C)=O)C(OC(C)=O)C1OC(C)=O.CC[PH+](CC)CC.CC[PH+](CC)CC.[Au].[Au] (centres undefined) | 0.181 | 0.449 |
| O=C(C[n+]1ccccc1)NNC(=O)/C(=C/c1ccc2c(c1)OCO2)NC(=O)c1ccccc1 | – | > 83.5 |
| Cc1cccc(NC(=O)/C=C/c2ccc(N(CCC#N)CCC#N)cc2C)c1 | – | > 100 |
| Clc1ccc(-c2c(C3=NCCN3)nnn2-c2ccc(Cl)cc2)cc1 | – | 29.5 |
| Nc1ccc(C(=O)NN2C(=O)C(Cl)C2c2ccccc2Cl)cc1 (centres undefined) | – | 31.5 |
| O=C(CCC(=O)Nc1cccc(Cl)c1)CC(=O)c1ccc(Cl)cc1 | – | > 100 |

system: NCI-H522 lung; assay: NCI-60 cell line screen, 48 h

| Compound | TGI [µM] |
| --- | --- |
| O=C(C[n+]1ccccc1)NNC(=O)/C(=C/c1ccc2c(c1)OCO2)NC(=O)c1ccccc1 | > 70.8 |
| Cc1cccc(NC(=O)/C=C/c2ccc(N(CCC#N)CCC#N)cc2C)c1 | > 100 |
| Clc1ccc(-c2c(C3=NCCN3)nnn2-c2ccc(Cl)cc2)cc1 | 30.1 |
| Nc1ccc(C(=O)NN2C(=O)C(Cl)C2c2ccccc2Cl)cc1 (centres undefined) | 3.13 |
| O=C(CCC(=O)Nc1cccc(Cl)c1)CC(=O)c1ccc(Cl)cc1 | > 100 |

system: SNB-75 CNS; assay: NCI-60 cell line screen, 48 h

| Compound | GI50 [µM] | TGI [µM] |
| --- | --- | --- |
| CC(=O)OCC1OC([S-])C(OC(C)=O)C(OC(C)=O)C1OC(C)=O.CC[PH+](CC)CC.CC[PH+](CC)CC.[Au].[Au] (centres undefined) | 0.249 | 1.16 |
| O=C(C[n+]1ccccc1)NNC(=O)/C(=C/c1ccc2c(c1)OCO2)NC(=O)c1ccccc1 | – | > 95.9 |
| Cc1cccc(NC(=O)/C=C/c2ccc(N(CCC#N)CCC#N)cc2C)c1 | – | > 100 |
| Clc1ccc(-c2c(C3=NCCN3)nnn2-c2ccc(Cl)cc2)cc1 | – | 48.3 |
| Nc1ccc(C(=O)NN2C(=O)C(Cl)C2c2ccccc2Cl)cc1 (centres undefined) | – | 31.3 |
| O=C(CCC(=O)Nc1cccc(Cl)c1)CC(=O)c1ccc(Cl)cc1 | – | > 100 |

system: RXF-631 renal; assay: NCI-60 cell line screen, 48 h

| Compound | TGI [µM] |
| --- | --- |
| Cc1cccc(NC(=O)/C=C/c2ccc(N(CCC#N)CCC#N)cc2C)c1 | > 100 |
| O=C(CCC(=O)Nc1cccc(Cl)c1)CC(=O)c1ccc(Cl)cc1 | > 100 |

system: HOP-62 NSCLC; assay: NCI-60 cell line screen, 48 h

| Compound | GI50 [µM] | TGI [µM] |
| --- | --- | --- |
| CC(=O)OCC1OC([S-])C(OC(C)=O)C(OC(C)=O)C1OC(C)=O.CC[PH+](CC)CC.CC[PH+](CC)CC.[Au].[Au] (centres undefined) | 1.23 | 2.56 |
| O=C(C[n+]1ccccc1)NNC(=O)/C(=C/c1ccc2c(c1)OCO2)NC(=O)c1ccccc1 | – | > 100 |
| Cc1cccc(NC(=O)/C=C/c2ccc(N(CCC#N)CCC#N)cc2C)c1 | – | > 100 |
| Clc1ccc(-c2c(C3=NCCN3)nnn2-c2ccc(Cl)cc2)cc1 | – | > 100 |
| Nc1ccc(C(=O)NN2C(=O)C(Cl)C2c2ccccc2Cl)cc1 (centres undefined) | – | 35.4 |
| O=C(CCC(=O)Nc1cccc(Cl)c1)CC(=O)c1ccc(Cl)cc1 | – | > 100 |

system: LOX IMVI melanoma; assay: NCI-60 cell line screen, 48 h

| Compound | GI50 [µM] | TGI [µM] |
| --- | --- | --- |
| CC(=O)OCC1OC([S-])C(OC(C)=O)C(OC(C)=O)C1OC(C)=O.CC[PH+](CC)CC.CC[PH+](CC)CC.[Au].[Au] (centres undefined) | 0.142 | 0.317 |
| O=C(C[n+]1ccccc1)NNC(=O)/C(=C/c1ccc2c(c1)OCO2)NC(=O)c1ccccc1 | – | 49 |
| Cc1cccc(NC(=O)/C=C/c2ccc(N(CCC#N)CCC#N)cc2C)c1 | – | > 100 |
| Clc1ccc(-c2c(C3=NCCN3)nnn2-c2ccc(Cl)cc2)cc1 | – | > 100 |
| Nc1ccc(C(=O)NN2C(=O)C(Cl)C2c2ccccc2Cl)cc1 (centres undefined) | – | 2.9 |
| O=C(CCC(=O)Nc1cccc(Cl)c1)CC(=O)c1ccc(Cl)cc1 | – | > 100 |

system: SK-OV-3 ovarian; assay: NCI-60 cell line screen, 48 h

| Compound | GI50 [µM] | TGI [µM] |
| --- | --- | --- |
| CC(=O)OCC1OC([S-])C(OC(C)=O)C(OC(C)=O)C1OC(C)=O.CC[PH+](CC)CC.CC[PH+](CC)CC.[Au].[Au] (centres undefined) | 1.68 | 3.05 |
| O=C(C[n+]1ccccc1)NNC(=O)/C(=C/c1ccc2c(c1)OCO2)NC(=O)c1ccccc1 | – | > 100 |
| Cc1cccc(NC(=O)/C=C/c2ccc(N(CCC#N)CCC#N)cc2C)c1 | – | > 100 |
| Clc1ccc(-c2c(C3=NCCN3)nnn2-c2ccc(Cl)cc2)cc1 | – | 93.3 |
| Nc1ccc(C(=O)NN2C(=O)C(Cl)C2c2ccccc2Cl)cc1 (centres undefined) | – | 29.6 |
| O=C(CCC(=O)Nc1cccc(Cl)c1)CC(=O)c1ccc(Cl)cc1 | – | > 100 |

system: 786-0 renal; assay: NCI-60 cell line screen, 48 h

| Compound | GI50 [µM] | TGI [µM] |
| --- | --- | --- |
| CC(=O)OCC1OC([S-])C(OC(C)=O)C(OC(C)=O)C1OC(C)=O.CC[PH+](CC)CC.CC[PH+](CC)CC.[Au].[Au] (centres undefined) | 0.185 | 0.401 |
| O=C(C[n+]1ccccc1)NNC(=O)/C(=C/c1ccc2c(c1)OCO2)NC(=O)c1ccccc1 | – | > 90.7 |
| Cc1cccc(NC(=O)/C=C/c2ccc(N(CCC#N)CCC#N)cc2C)c1 | – | > 100 |
| Clc1ccc(-c2c(C3=NCCN3)nnn2-c2ccc(Cl)cc2)cc1 | – | 58.4 |
| Nc1ccc(C(=O)NN2C(=O)C(Cl)C2c2ccccc2Cl)cc1 (centres undefined) | – | 3.35 |
| O=C(CCC(=O)Nc1cccc(Cl)c1)CC(=O)c1ccc(Cl)cc1 | – | > 100 |

system: HOP-18 NSCLC; assay: NCI-60 cell line screen, 48 h

| Compound | GI50 [µM] | TGI [µM] |
| --- | --- | --- |
| CC(=O)OCC1OC([S-])C(OC(C)=O)C(OC(C)=O)C1OC(C)=O.CC[PH+](CC)CC.CC[PH+](CC)CC.[Au].[Au] (centres undefined) | 0.253 | 0.694 |
| O=C(C[n+]1ccccc1)NNC(=O)/C(=C/c1ccc2c(c1)OCO2)NC(=O)c1ccccc1 | – | > 84.7 |
| Clc1ccc(-c2c(C3=NCCN3)nnn2-c2ccc(Cl)cc2)cc1 | – | > 100 |
| Nc1ccc(C(=O)NN2C(=O)C(Cl)C2c2ccccc2Cl)cc1 (centres undefined) | – | 8.87 |

system: SK-MEL-28 melanoma; assay: NCI-60 cell line screen, 48 h

| Compound | GI50 [µM] | TGI [µM] |
| --- | --- | --- |
| CC(=O)OCC1OC([S-])C(OC(C)=O)C(OC(C)=O)C1OC(C)=O.CC[PH+](CC)CC.CC[PH+](CC)CC.[Au].[Au] (centres undefined) | 0.167 | 0.791 |
| O=C(C[n+]1ccccc1)NNC(=O)/C(=C/c1ccc2c(c1)OCO2)NC(=O)c1ccccc1 | – | > 100 |
| Cc1cccc(NC(=O)/C=C/c2ccc(N(CCC#N)CCC#N)cc2C)c1 | – | > 100 |
| Clc1ccc(-c2c(C3=NCCN3)nnn2-c2ccc(Cl)cc2)cc1 | – | 52.5 |
| Nc1ccc(C(=O)NN2C(=O)C(Cl)C2c2ccccc2Cl)cc1 (centres undefined) | – | 28.3 |
| O=C(CCC(=O)Nc1cccc(Cl)c1)CC(=O)c1ccc(Cl)cc1 | – | > 100 |

system: A549 NSCLC; assay: NCI-60 cell line screen, 48 h

| Compound | GI50 [µM] | TGI [µM] |
| --- | --- | --- |
| CC(=O)OCC1OC([S-])C(OC(C)=O)C(OC(C)=O)C1OC(C)=O.CC[PH+](CC)CC.CC[PH+](CC)CC.[Au].[Au] (centres undefined) | 1.72 | 4 |
| O=C(C[n+]1ccccc1)NNC(=O)/C(=C/c1ccc2c(c1)OCO2)NC(=O)c1ccccc1 | – | > 100 |
| Cc1cccc(NC(=O)/C=C/c2ccc(N(CCC#N)CCC#N)cc2C)c1 | – | > 100 |
| Clc1ccc(-c2c(C3=NCCN3)nnn2-c2ccc(Cl)cc2)cc1 | – | > 100 |
| Nc1ccc(C(=O)NN2C(=O)C(Cl)C2c2ccccc2Cl)cc1 (centres undefined) | – | 27.8 |
| O=C(CCC(=O)Nc1cccc(Cl)c1)CC(=O)c1ccc(Cl)cc1 | – | > 100 |

system: SK-MEL-2 melanoma; assay: NCI-60 cell line screen, 48 h

| Compound | GI50 [µM] | TGI [µM] |
| --- | --- | --- |
| CC(=O)OCC1OC([S-])C(OC(C)=O)C(OC(C)=O)C1OC(C)=O.CC[PH+](CC)CC.CC[PH+](CC)CC.[Au].[Au] (centres undefined) | 0.187 | 0.49 |
| O=C(C[n+]1ccccc1)NNC(=O)/C(=C/c1ccc2c(c1)OCO2)NC(=O)c1ccccc1 | – | > 100 |
| Cc1cccc(NC(=O)/C=C/c2ccc(N(CCC#N)CCC#N)cc2C)c1 | – | > 100 |
| Clc1ccc(-c2c(C3=NCCN3)nnn2-c2ccc(Cl)cc2)cc1 | – | 26.1 |
| Nc1ccc(C(=O)NN2C(=O)C(Cl)C2c2ccccc2Cl)cc1 (centres undefined) | – | 24.5 |
| O=C(CCC(=O)Nc1cccc(Cl)c1)CC(=O)c1ccc(Cl)cc1 | – | > 100 |

system: SR leukemia; assay: NCI-60 cell line screen, 48 h

| Compound | TGI [µM] |
| --- | --- |
| O=C(C[n+]1ccccc1)NNC(=O)/C(=C/c1ccc2c(c1)OCO2)NC(=O)c1ccccc1 | 36.6 |
| Clc1ccc(-c2c(C3=NCCN3)nnn2-c2ccc(Cl)cc2)cc1 | 35.1 |
| Nc1ccc(C(=O)NN2C(=O)C(Cl)C2c2ccccc2Cl)cc1 (centres undefined) | 31.9 |
| O=C(CCC(=O)Nc1cccc(Cl)c1)CC(=O)c1ccc(Cl)cc1 | > 100 |

system: KM20L2 colon; assay: NCI-60 cell line screen, 48 h

| Compound | GI50 [µM] | TGI [µM] |
| --- | --- | --- |
| CC(=O)OCC1OC([S-])C(OC(C)=O)C(OC(C)=O)C1OC(C)=O.CC[PH+](CC)CC.CC[PH+](CC)CC.[Au].[Au] (centres undefined) | 0.792 | 2.2 |
| O=C(C[n+]1ccccc1)NNC(=O)/C(=C/c1ccc2c(c1)OCO2)NC(=O)c1ccccc1 | – | > 100 |
| Cc1cccc(NC(=O)/C=C/c2ccc(N(CCC#N)CCC#N)cc2C)c1 | – | > 100 |
| Clc1ccc(-c2c(C3=NCCN3)nnn2-c2ccc(Cl)cc2)cc1 | – | 32.7 |
| Nc1ccc(C(=O)NN2C(=O)C(Cl)C2c2ccccc2Cl)cc1 (centres undefined) | – | 29.9 |
| O=C(CCC(=O)Nc1cccc(Cl)c1)CC(=O)c1ccc(Cl)cc1 | – | > 100 |

system: SN12C renal; assay: NCI-60 cell line screen, 48 h

| Compound | GI50 [µM] | TGI [µM] |
| --- | --- | --- |
| CC(=O)OCC1OC([S-])C(OC(C)=O)C(OC(C)=O)C1OC(C)=O.CC[PH+](CC)CC.CC[PH+](CC)CC.[Au].[Au] (centres undefined) | 0.567 | 1.78 |
| O=C(C[n+]1ccccc1)NNC(=O)/C(=C/c1ccc2c(c1)OCO2)NC(=O)c1ccccc1 | – | > 100 |
| Cc1cccc(NC(=O)/C=C/c2ccc(N(CCC#N)CCC#N)cc2C)c1 | – | > 100 |
| Clc1ccc(-c2c(C3=NCCN3)nnn2-c2ccc(Cl)cc2)cc1 | – | > 100 |
| O=C(CCC(=O)Nc1cccc(Cl)c1)CC(=O)c1ccc(Cl)cc1 | – | > 100 |

system: UO-31 renal; assay: NCI-60 cell line screen, 48 h

| Compound | GI50 [µM] | TGI [µM] |
| --- | --- | --- |
| CC(=O)OCC1OC([S-])C(OC(C)=O)C(OC(C)=O)C1OC(C)=O.CC[PH+](CC)CC.CC[PH+](CC)CC.[Au].[Au] (centres undefined) | 1.6 | 2.98 |
